The source of these data is paper PMC6835155, “Lessons from LIMK1 enzymology and their impact on inhibitor design” (Biochemical Journal, 2019).

The target of one test is T1, LIMK1KD (Homo sapiens, UniProt P53667).
T1 construct: His6 (N, cleaved yes); made in house; host or cells: baculovirus; Sf9 for virus, TriEx insect cells for expression
As to the kind of experiment: Differential (dynamic) scanning fluorimetry (DSF) assay, LIMK1KD. To be noted: 2 µM LIMK1KD, compound 10 µM, single shot; for ΔTm at 10 µM: read-out: TM Shift LIMK1 (K). Format: binding.

The target in another test is T2, LIMK2KD (Homo sapiens, UniProt P53671).
T2 construct: The cDNA coding for LIMK2 residues 330 to 632 was PCR amplified; His6 (N, cleaved yes); made in house; host or cells: baculovirus; Sf9 for virus, TriEx insect cells for expression
The test is described as follows: Differential (dynamic) scanning fluorimetry (DSF) assay, LIMK2KD. The settings on record: LIMK2KD, compound 10 µM, single shot; for ΔTm at 10 µM: read-out: TM Shift LIMK2 (K). Format: binding.

The structures appear in SMILES notation.

T1 sequence (P53667 330-637): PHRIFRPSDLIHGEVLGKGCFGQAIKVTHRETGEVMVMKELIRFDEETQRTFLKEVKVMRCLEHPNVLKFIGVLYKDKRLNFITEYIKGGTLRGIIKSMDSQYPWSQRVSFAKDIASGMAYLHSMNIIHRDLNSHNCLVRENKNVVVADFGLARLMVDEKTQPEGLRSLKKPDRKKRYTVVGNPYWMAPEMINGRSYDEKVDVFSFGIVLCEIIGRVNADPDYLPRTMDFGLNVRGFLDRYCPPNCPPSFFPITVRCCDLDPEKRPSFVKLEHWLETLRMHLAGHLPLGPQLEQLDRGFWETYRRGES
T2 sequence (P53671 330-632): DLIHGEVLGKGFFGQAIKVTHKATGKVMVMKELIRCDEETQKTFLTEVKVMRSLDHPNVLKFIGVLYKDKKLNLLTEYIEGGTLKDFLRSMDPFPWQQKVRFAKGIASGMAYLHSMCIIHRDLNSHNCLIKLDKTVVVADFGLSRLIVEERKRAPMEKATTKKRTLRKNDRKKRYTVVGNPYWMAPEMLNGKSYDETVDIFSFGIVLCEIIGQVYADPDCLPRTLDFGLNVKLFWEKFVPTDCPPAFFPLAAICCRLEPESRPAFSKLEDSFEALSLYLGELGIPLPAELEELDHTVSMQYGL

On to `Cc1ccc(S(=O)(=O)/C=C/C#N)cc1` [BAY 11-7082], for which the “TM Shift LIMK1 (K)” value at LIMK1KD is on record as -0.8 K. Further, on LIMK2KD, the “TM Shift LIMK2 (K)” value stood at 0.2 K.
As for `COc1ccc(-c2ccc3ncc4c(c3c2)n(-c2ccc(N3CCNCC3)c(C(F)(F)F)c2)c(=O)n4C)cn1` [BGT226 (NVP-BGT226)], the ΔTm at 10 µM at LIMK1KD is -0.1 °C; at LIMK2KD, -0.7 °C.
Regarding `CC(C)CCN1c2nc(Nc3cc(F)c(O)c(F)c3)ncc2N(C)C(=O)C1C` (stereo not shown) [BI-D1870], at LIMK1KD, the “TM Shift LIMK1 (K)” value is listed as 2.2 K. Moreover, the “TM Shift LIMK2 (K)” value on LIMK2KD came out at 3.9 K.
The matching figures for `O=C1Nc2cc(Br)ccc2/C1=C1/Nc2ccccc2/C1=N\O` [BIO]: 0.2 K and 2.2 K.
In the case of `CN(C)Cc1cccc(N/C(=C2\C(=O)Nc3cc(C(N)=O)ccc32)c2ccccc2)c1` [BIX 02188], the ΔTm at 10 µM at LIMK1KD is 1.7 °C; at LIMK2KD it was -0.1 °C.
Take `CN(C)Cc1cccc(N/C(=C2\C(=O)Nc3cc(C(=O)N(C)C)ccc32)c2ccccc2)c1` [BIX 02189]: at LIMK1KD, the “TM Shift LIMK1 (K)” value is reported as 0.1 K. The “TM Shift LIMK2 (K)” value at LIMK2KD is 4.5 K.
Regarding `CCCCOc1c(C(=O)c2c(F)cc(C)cc2F)c[nH]c2nncc1-2` [BMS-265246], the ΔTm at 10 µM at LIMK1KD stood at 0.7 °C; on LIMK2KD, 1.4 °C.
In the case of `Cc1ccc2nc(NCCN)c3ncc(C)n3c2c1` [BMS-345541], the ΔTm at 10 µM came to 0.4 °C at LIMK1KD and 2.8 °C at LIMK2KD.
As to `Cc1c(NC(=O)OC[C@@H]2COCCN2)cn2ncnc(Nc3ccc4c(cnn4Cc4cccc(F)c4)c3)c12` [BMS-599626], on LIMK1KD, the ΔTm at 10 µM was determined as 0.7 °C. In addition, the “TM Shift LIMK2 (K)” value is recorded as -0.4 K on LIMK2KD (10 µM) and 0.9 K at LIMK2KD (listed as AC480 (BMS-599626), 10 µM).
On to `CCOc1ccn(-c2ccc(F)cc2)c(=O)c1C(=O)Nc1ccc(Oc2ccnc(N)c2Cl)c(F)c1` [BMS-777607], for which the ΔTm at 10 µM at LIMK1KD was 3.8 °C; on LIMK2KD it was -0.2 °C.
The matching figures for `Nc1nccc(Oc2ccc(NC(=O)c3c[nH]cc(-c4ccc(F)cc4)c3=O)cc2F)c1Cl` [BMS-794833]: 1.5 °C and 2 °C.
The matching figures for `CCn1c(C(=O)N(C2CC2)C2CC2)cc2c3c(ncn3C)c(Nc3cc(C)n(C)n3)nc21` [BMS-911543]: 1.8 °C and 0.3 °C.
Take `CC(C)c1cnn2c(NCc3ccccc3)cc(NCCCCCCN)nc12.Cl` [BS-181 HCl]: the “TM Shift LIMK1 (K)” value on LIMK1KD turned out to be 0.7 K. For the same molecule, the “TM Shift LIMK2 (K)” value on LIMK2KD is 1.7 K.
For `O=C(NCCCNc1nc(Nc2cccc(NC(=O)N3CCCC3)c2)ncc1I)c1cccs1` [BX-795], the ΔTm at 10 µM on LIMK1KD is 5 °C; at LIMK2KD it was 4.7 °C.
In the case of `O=C(Nc1cccc(Nc2ncc(Br)c(NCCc3cnc[nH]3)n2)c1)N1CCCC1` [BX-912], at LIMK1KD, the “TM Shift LIMK1 (K)” value turned out to be 3.6 K. Besides, the “TM Shift LIMK2 (K)” value on LIMK2KD turned out to be 2.8 K.
Consider `Cc1nc(NC(=O)N2CCC[C@H]2C(N)=O)sc1-c1ccnc(C(C)(C)C(F)(F)F)c1` [BYL719], for which the ΔTm at 10 µM at LIMK1KD was -0.5 °C; on LIMK2KD, -0.2 °C.
The matching figures for `Cc1ccc(NC(=O)c2ccc(CN3CC[C@H](N(C)C)C3)c(C(F)(F)F)c2)cc1Nc1nccc(-c2cncnc2)n1` [Bafetinib]: 2.5 °C and 1.1 °C.
The matching figures for `COC(=O)[C@]12CCC(C)(C)C[C@H]1[C@H]1C(=O)C=C3[C@@]4(C)C=C(C#N)C(=O)C(C)(C)[C@@H]4CC[C@@]3(C)[C@]1(C)CC2` [Bardoxolone Methyl]: -1 °C and 0.8 °C.
The matching figures for `CCS(=O)(=O)N1CC(CC#N)(n2cc(-c3ncnc4[nH]ccc34)cn2)C1` [Baricitinib]: 1.6 °C and 1 °C.
In the case of `COc1cc(Nc2c(C#N)cnc3cc(OCCCN4CCN(C)CC4)c(OC)cc23)c(Cl)cc1Cl` [Bosutinib (SKI-606), Bosutinib], the figures for the ΔTm at 10 µM on LIMK1KD and on LIMK2KD were 0.1 °C and 1.3 °C, respectively.
The matching figures for `Cc1cc2c(F)c(Oc3ncnn4cc(OC[C@@H](C)O)c(C)c34)ccc2[nH]1` [Brivanib (BMS-540215), Brivanib]: 0.8 °C and 0.3 °C.
